In ChEMBL document CHEMBL4402595, “Discovery of Orally Bioavailable Chromone Derivatives as Potent and Selective BRD4 Inhibitors: Scaffold Hopping, Optimization, and Pharmacological Evaluation” (J Med Chem, 2020) one finds inhibition and IC50 data, which are given here for 27 compounds.

Assay [1] has as its target T1, Bromodomain-containing protein 4 (Homo sapiens, UniProt O60885). Description: Inhibition of BRD4 in poly(I:C)-stimulated human SAECs TLR3-inducible IL-6 gene expression at 10 uM pre-incubated for 24 hrs before poly(I:C) stimulation for 4 hrs by qRT-PCR analysis relative to control.
Assay [2] deals with T1, Bromodomain-containing protein 4. Description: Inhibition of BRD4 in poly(I:C)-stimulated human SAECs TLR3-inducible IL-6 gene expression pre-incubated for 24 hrs before poly(I:C) stimulation for 4 hrs by qRT-PCR analysis.
For assay [3] the target is unchanged. The experiment in a line: Binding affinity to recombinant BRD4 BD2 (unknown origin) incubated for 1 hr by TR-FRET assay.
For assay [4], the target named is Bromodomain-containing protein 2 (Homo sapiens, UniProt P25440). Description: Binding affinity to recombinant BRD2 BD2 (unknown origin) incubated for 1 hr by TR-FRET assay.
Assay [5] concerns the target T1, Bromodomain-containing protein 4. The experiment in a line: Inhibition of BRD4 in poly(I:C)-stimulated human SAECs TLR3-inducible CIG5 gene expression pre-incubated for 24 hrs before poly(I:C) stimulation for 4 hrs by qRT-PCR analysis.
The target is the same in assay [6]. Description: Inhibition of BRD4 in poly(I:C)-stimulated human SAECs TLR3-inducible CIG5 gene expression at 10 uM pre-incubated for 24 hrs before poly(I:C) stimulation for 4 hrs by qRT-PCR analysis relative to control.

pIC50: −log10 of the molar value.

Sequence of Bromodomain-containing protein 2 (P25440 whole entry): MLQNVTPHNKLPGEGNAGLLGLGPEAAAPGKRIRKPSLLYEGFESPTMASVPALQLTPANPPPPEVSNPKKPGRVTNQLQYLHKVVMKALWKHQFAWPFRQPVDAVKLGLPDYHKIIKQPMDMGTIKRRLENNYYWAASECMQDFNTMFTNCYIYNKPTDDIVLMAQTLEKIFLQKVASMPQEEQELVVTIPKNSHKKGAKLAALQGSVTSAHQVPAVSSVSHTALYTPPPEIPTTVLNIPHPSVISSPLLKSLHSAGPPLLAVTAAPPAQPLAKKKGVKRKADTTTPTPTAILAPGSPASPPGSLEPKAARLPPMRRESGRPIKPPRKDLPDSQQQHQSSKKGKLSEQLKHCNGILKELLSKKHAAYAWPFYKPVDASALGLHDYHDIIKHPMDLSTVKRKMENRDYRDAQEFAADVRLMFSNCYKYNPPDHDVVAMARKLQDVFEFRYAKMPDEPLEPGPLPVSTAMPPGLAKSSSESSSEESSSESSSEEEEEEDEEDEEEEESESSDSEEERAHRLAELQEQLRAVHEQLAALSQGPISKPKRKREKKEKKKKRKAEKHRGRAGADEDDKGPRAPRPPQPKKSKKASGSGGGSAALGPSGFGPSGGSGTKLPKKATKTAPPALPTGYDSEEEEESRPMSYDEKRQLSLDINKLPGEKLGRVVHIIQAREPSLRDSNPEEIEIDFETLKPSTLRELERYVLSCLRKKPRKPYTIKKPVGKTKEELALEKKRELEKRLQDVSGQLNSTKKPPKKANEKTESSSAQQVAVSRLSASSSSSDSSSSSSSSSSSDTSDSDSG

As for `COc1cc(OC)c2c(=O)cc(-c3cc(C)c(OC[C@@H](O)CN4CCCCC4)c(C)c3)oc2c1`, the inhibition in assay [1] and in assay [6] was 100% in each case. Moreover, the pIC50 is 6.27 in assay [2], 7.03 in assay [3], 5.92 in assay [4] and 6.24 in assay [5].
On to `C=CCOc1c(C)cc(-c2cc(=O)c3c(OC)cc(OC)cc3o2)cc1C`, for which the inhibition in assay [6] stood at 83%.
Turning to `COc1cc(OC)c2c(=O)[nH]c(-c3cc(C)c(OC[C@@H]4CO4)c(C)c3)nc2c1`, the inhibition in assay [1] stood at 83%; in assay [6] it was 87%.
Take `COc1cc(OC)c2c(=O)[nH]c(-c3cc(C)c(OC[C@@H](O)CN4CCN(C)CC4)c(C)c3)nc2c1`: the inhibition in assay [1] came to 80%; in assay [6] it was 83%. The negative logarithm of the IC50 (pIC50) is 5.46 in assay [2] and 5.59 in assay [5].
`Cc1cc(-c2nc3ccccc3c(=O)[nH]2)cc(C)c1O`: the inhibition in assay [1] came out at 81%.
For `Cc1cc(-c2nc3ccccc3c(=O)n2C)cc(C)c1O`, the inhibition in assay [1] was 55%; in assay [6], 18%.
Take `COc1cc(OC)c2c(=O)cc(-c3cc(C)c(OC[C@H](O)CN4CCCC4)c(C)c3)oc2c1`: the inhibition in assay [1] is 99%; in assay [6], 92%. The pIC50 in assay [2] is 6.01; in assay [5] it was 5.83.
Turning to `COc1cc(OC)c2c(=O)[nH]c(-c3cc(C)c(OCCO)c(C)c3)nc2c1`, the inhibition in assay [1] was 65%; in assay [6], 84%.
`COc1cc(OC)c2c(=O)cc(-c3cc(C)c(OC[C@H](O)CN(C)C)c(C)c3)oc2c1`: in assay [1], the inhibition was determined as 82%.
Consider `Cc1cc(-c2nc3cc(-c4ccn(C)n4)ccc3c(=O)[nH]2)cc(C)c1O`, for which the inhibition in assay [6] was found to be 71%.
On to `COc1cc(OC)c2c(=O)cc(-c3cc(C)c(OCCO)c(C)c3)oc2c1`, for which the inhibition in assay [1] is 98%; in assay [6], 97%. Besides, the pIC50 was 5.55 in assay [2] and 5.59 in assay [5].
Regarding `COc1cc(OC)c2c(=O)[nH]c(-c3ccc(O)cc3Cl)nc2c1`, the inhibition in assay [1] was 66%; in assay [6], 42%.
The matching figures for `COc1cc(OC)c2c(=O)cc(-c3cc(C)c(OC[C@H](O)CN4CCOCC4)c(C)c3)oc2c1`: 82% and 42%.
The like results for `Cc1cc(-c2nc3cc(Br)ccc3c(=O)[nH]2)cc(C)c1O` were, in that order, 15% and 51%.
Turning to `Cc1cc(-c2nc3cc([N+](=O)[O-])ccc3c(=O)n2C)cc(C)c1O`, the inhibition in assay [1] amounted to 86%.
For the compound `Cc1cc(-c2nc3cccc(F)c3c(=O)[nH]2)cc(C)c1O`, the inhibition was determined as 62% in assay [1] and 33% in assay [6].
Consider `O=c1[nH]c(-c2cc(F)c(O)cc2F)nc2ccccc12`, for which the inhibition in assay [1] turned out to be 59%; in assay [6], 2.2%.
For the compound `COc1cc(OC)c2c(=O)[nH]c(-c3cc(C)c(O)c(C)c3)nc2c1`, the inhibition in assay [1] was determined as 75%.
Turning to `COc1cc(-c2nc3ccccc3c(=O)[nH]2)cc(OC)c1O`, the inhibition in assay [1] turned out to be 59%; in assay [6], 61%.
The like results for `COc1cc(OC)c2c(=O)cc(-c3cc(C)c(OC[C@H](O)CN4CCC(F)(F)CC4)c(C)c3)oc2c1` were, in that order, 88% and 63%.
The matching figures for `Cc1cc(-c2nc3ccc(Br)cc3c(=O)[nH]2)cc(C)c1O`: 25% and 43%.
`Cc1cc(-c2nc3ccc(F)cc3c(=O)[nH]2)cc(C)c1O`: the inhibition was 62% in assay [1] and -4.5% in assay [6].
With `COc1cc(OC)c2c(=O)[nH]c(-c3ccc(C(F)(F)F)c(C)c3)nc2c1`, in assay [1], the inhibition is 45%.
As to `COc1cc(OC)c2c(=O)[nH]c(-c3ccc(C(F)(F)F)cc3)nc2c1`, the inhibition in assay [6] came out at 45%.
Turning to `COc1cc(OC)c2c(=O)cc(-c3cc(C)c(OC[C@@H](F)CN4CCCCC4)c(C)c3)oc2c1`, the figures for the inhibition in assay [1] and in assay [6] were 90% and 85%, respectively.
The like results for `COc1cc(OC)c2c(=O)[nH]c(-c3ccc(O)cc3)nc2c1` were, in that order, 63% and 81%.
The like results for `Cc1cc(-c2nc3ccc(Cl)cc3c(=O)[nH]2)cc(C)c1O` were, in that order, 53% and 37%.
